# Test results: publication PMC3412845, “Waking Action of Ursodeoxycholic Acid (UDCA) Involves Histamine and GABAA Receptor Block” (PLoS ONE, 2012)
# Legend:
# HDC+/+ mice = assay: Polygraphic (EEG/EMG) sleep-wake recording in wild type mice; assay type: in vivo, mouse
# Procedure: (§1) Animal experiments were conducted according to the Animal Protection Law of the Federal Republic of Germany and the local guidelines (Bezirksregierung Duesseldorf) and were in accordance with the European Communities Council directive regarding care and use of animals for experimental procedures (86/609/EEC). The general protocol of sleep-wake recording and experiment in the mouse was approved by the ethic committee of Claude Bernard University of Lyon. All efforts were made to minimize the number of animals and their suffering. At the age of 12 weeks and with a body weight of 30±2 g HDC wild type and knockout mice used for EEG and sleep-wake studies were chronically implanted, under deep gas anesthesia using isoflurane (2%, 200 ml/min) and a TEM anesthesia system (Bordeaux, France), with six cortical electrodes (gold-plated tinned copper wire, Ø = 0.4 mm, Filotex, Draveil, France) and three neck muscle electrodes (fluorocarbon-coated gold-plated stainless steel wire, Ø = 0.03 mm, Cooner Wire Chatworth, CA, U.S.A.) to record the electroencephalogram (EEG) and electromyogram (EMG) and to monitor the sleep-wake cycle. Finally, the electrode assembly was anchored and fixed to the skull with Super-Bond (Sun Medical Co., Shiga, Japan) and dental cement. This implantation allows stable and long-lasting polygraphic recordings.
# (§2) After surgery, the animals were housed individually in barrels placed in an insulated sound-proof recording room maintained at an ambient temperature of 22±1°C and on a 12 h light/dark cycle (lights-on at 7 a.m.), standard food and water being available ad libitum. After a 7-days recovery period, mice were habituated to the recording cable for 7 days before polygraphic recordings were started. Cortical EEG (contralateral frontoparietal leads) and EMG signals were amplified, digitized with a resolution of 256 and 128 Hz, respectively, and computed on a CED 1401 Plus (Cambridge, UK). Using a Spike2 script and with the assistance of spectral analysis using the fast Fourier transform, polygraphic records were visually scored by 30-sec epochs for wakefulness (W), slow wave sleep (SWS), and paradoxical sleep (PS) according to previously described criteria validated for mice.
# (§3) Animals were subjected to 12 h sleep-wake recordings following administration of URSOFALK (clinically used UDCA, 32 mg/kg) through the oral route (per os) at 10 a.m. (during the sleepy period) or at 7 p.m. (during the active period). Each animal received twice single dose of UDCA and twice equal volume of vehicle. There was an interval of 7 days between any two administrations. UDCA or vehicle was applied at random. The waking, slow wave sleep or paradoxical sleep amounts were compared between vehicle and UCDA within the same animal, the differences being averaged within the groups. […]
# HDC−/− mice = assay: Polygraphic (EEG/EMG) sleep-wake recording in histamine-deficient mice; assay type: in vivo, mouse
# Procedure: as §1, §2, §3
# TMN neurons = assay: Firing of TMN neurons recorded in hypothalamic slices; assay type: cell-based, mouse; conditions: UDCA 100 µM, n = 10
# Procedure: (§4) Recordings from histaminergic neurons in male Wistar rat (22–26 day old) or 30–60 day old mouse (SV129, histidine decarboxylase deficient HDC−/− or their wild type littermates) hypothalamic slices were performed as previously described. Slices were obtained between 9 and 11 a.m. In the beginning of whole-cell voltage clamp recordings TMN neurons were identified with the help of DIC microscopy and electrophysiological criteria as previously described. Inhibitory postsynaptic currents (IPSCs) were evoked by local stimulation through a bipolar stainless-steel stimulating electrode (50 µm; WPI, UK). The stimulation of axonal endings coming to TMN from ventrolateral preoptic area (VLPO) was done as described in [22]. […] Individual neurons were separated by vibrodissociation after brief preincubation with papain from the hypothalamic slices of mice or rats and identified as TMN neurons according to their size and shape. Identification was confirmed post hoc with the single-cell RT-PCR (all data presented in the manuscript were obtained from histidine decarboxylase-expressing neurons), [40]. TMN neurons from HDC−/− mice were identified by the expression of peripherin [16]. […] Membrane potentials were not corrected for liquid junction potential (5.6 mV, calculated with LJPCalc, Barry, 1994). […]
# [1] = tested on: TMN neurons (eIPSCs and sIPSCs); assay: Spontaneous and evoked IPSCs in TMN neurons in brain slices; assay type: cell-based, rat
# Procedure: Recordings from histaminergic neurons in male Wistar rat (22–26 day old) or 30–60 day old mouse (SV129, histidine decarboxylase deficient HDC−/− or their wild type littermates) hypothalamic slices were performed as previously described. Slices were obtained between 9 and 11 a.m. In the beginning of whole-cell voltage clamp recordings TMN neurons were identified with the help of DIC microscopy and electrophysiological criteria as previously described. Inhibitory postsynaptic currents (IPSCs) were evoked by local stimulation through a bipolar stainless-steel stimulating electrode (50 µm; WPI, UK). The stimulation of axonal endings coming to TMN from ventrolateral preoptic area (VLPO) was done as described in [22]. […] Individual neurons were separated by vibrodissociation after brief preincubation with papain from the hypothalamic slices of mice or rats and identified as TMN neurons according to their size and shape. Identification was confirmed post hoc with the single-cell RT-PCR (all data presented in the manuscript were obtained from histidine decarboxylase-expressing neurons), [40]. TMN neurons from HDC−/− mice were identified by the expression of peripherin [16]. Whole-cell voltage-clamp recordings from isolated neurons were done with an EPC-9 amplifier and TIDA for Windows (HEKA, Lambrecht, Germany) at room temperature. Membrane potentials were not corrected for liquid junction potential (5.6 mV, calculated with LJPCalc, Barry, 1994). The intracellular solution was composed of (in mM) 140 KCl, 2 MgCl2, 0.5 CaCl2, 5 EGTA, 2 ATP and 10 HEPES (pH 7.2 adjusted with NaOH). A fast perfusion technique was used for application of ligands and modulators of fast ionotropic receptors, [41]. […] EC50 is the ligand concentration producing a half-maximal response, [ligand] is ligand concentration, and n is the Hill slope. Hill coefficients were obtained from the slope of the log/log plot of the dose-response curves. […] Steady-state amplitudes of the responses were used for the construction of dose-response plots if not mentioned otherwise.
# AMPA-receptor = assay: Kainate-evoked AMPA-receptor mediated currents in isolated neurons; assay type: cell-based
# Procedure: as §4
# [2] = set-up: method as in PMID 11248487; conditions: volunteers (men), single oral dose ∼12 mg/kg; cited from earlier work
# [3] = set-up: method as in PMID 12236487, PMID 15349909; conditions: after several month of UDCA therapy (up to 35 mg/kg); cited from earlier work
# [4] = set-up: method as in PMID 22356133; conditions: cited from earlier work
# [5] = UDCA 32 mg/kg per os at 7 p.m., vs vehicle
smiles,measurement,setting,value
"C[C@H](CCC(=O)O)[C@H]1CC[C@H]2[C@@H]3[C@@H](O)C[C@@H]4C[C@H](O)CC[C@]4(C)[C@H]3CC[C@]12C [UDCA, ursodeoxycholic acid]",sleep wake states,HDC+/+ mice; 32 mg/kg orally at 10 a.m. (quiet period),did not affect
same,waking,"HDC+/+ mice; UDCA 32 mg/kg per os at 7 p.m. (active period), vs vehicle, n = 11",significantly increased
same,amount of paradoxical sleep (PS),HDC+/+ mice; [5],decreased
same,amount of slow wave sleep (SWS),HDC+/+ mice; [5],decreased
same,sleep wake states,"HDC−/− mice; 32 mg/kg orally at 10 a.m. (quiet period), n = 7",did not affect
same,slow wave sleep (SWS) and paradoxical sleep (PS),HDC−/− mice; [5],tended to be increased
same,total sleep,HDC−/− mice; [5],increased
same,waking,HDC−/− mice; [5],significantly decreased
same,firing at the end of UDCA application,TMN neurons,86±5 % of control
same,effect on eIPSCs and sIPSCs,[1]; 30 µM,ineffective
same,amplitude of eIPSCs and sIPSCs,[1]; 100 µM,significantly inhibited the amplitude of eIPSCs and sIPSCs in less than half of the neurons
same,amplitude and decay time of eIPSCs and sIPSCs,"[1]; 300 µM, all investigated neurons",significant reductions
same,AMPA-receptor mediated currents,AMPA-receptor; 100 µM,did not affect
same,AMPA-receptor mediated currents (responses to 150 µM of kainate),AMPA-receptor; up to […],did not affect
same,serum peak UDCA concentration,[2],~18 ± 10 µM
same,share of the total bile acid pool,[3],58–69%
same,access to the CNS,[4],reaches the CNS
